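Cultured in 96-well plates, cells were exposed to test compound for 48 hours across five concentrations. GI50 = concentration required for 50% inhibition of growth.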 Activity calls are given as the source filed them. Rule as the data show it: active = GI50 up to about 1.1 µM and inactive = higher.
Assays:
Test in all cases: growth of human tumour cells (NCI), 48 h
A498 = tested on: A498
HCC 2998 = tested on: HCC 2998
HCT-116 = tested on: HCT-116
HL-60 = tested on: HL-60
HOP-92 = tested on: HOP-92
Hs-578T = tested on: Hs-578T
IGROV-1 = tested on: IGROV-1
MDA-MB-435 = tested on: MDA-MB-435
Malme-3M = tested on: Malme-3M
NCI-H226 = tested on: NCI-H226
NCI-H23 = tested on: NCI-H23
NCI-H460 = tested on: NCI-H460
OVCAR-3 = tested on: OVCAR-3
RPMI-8226 = tested on: RPMI-8226
RXF 393 = tested on: RXF 393
SF-539 = tested on: SF-539
SNB-75 = tested on: SNB-75
TK-10 = tested on: TK-10
UACC-62 = tested on: UACC-62
UO-31 = tested on: UO-31

CCC(/C=C/c1ccccc1)=N\NC(=S)N/N=C(/C=C/c1ccccc1)CC
GI50 (A498): 20.8 µM (inactive) | GI50 (HCC 2998): 84.1 µM (inactive) | GI50 (HCT-116): 19 µM (inactive) | GI50 (HL-60): 19.6 µM (inactive) | GI50 (HOP-92): 83.9 µM (inactive) | GI50 (Hs-578T): > 100 µM (inactive) | GI50 (IGROV-1): 55.8 µM (inactive) | GI50 (MDA-MB-435): 46.5 µM (inactive) | GI50 (Malme-3M): 90.8 µM (inactive) | GI50 (NCI-H226): 32.2 µM (inactive) | GI50 (NCI-H23): 84.3 µM (inactive) | GI50 (NCI-H460): 13.2 µM (inactive) | GI50 (OVCAR-3): 22.9 µM (inactive) | GI50 (RPMI-8226): 35.5 µM (inactive) | GI50 (RXF 393): 38.5 µM (inactive) | GI50 (SF-539): 31.5 µM (inactive) | GI50 (SNB-75): > 100 µM (inactive) | GI50 (TK-10): > 100 µM (inactive) | GI50 (UACC-62): 54.8 µM (inactive) | GI50 (UO-31): 13 µM (inactive)

C/C(=N\Nc1nc2cc(C(F)(F)F)ccc2s1)c1ccccn1
GI50 (A498): 1.52 µM (inactive) | GI50 (HCC 2998): 2.6 µM (inactive) | GI50 (HCT-116): 0.0783 µM (active) | GI50 (HL-60): 0.127 µM (active) | GI50 (HOP-92): 0.593 µM (active) | GI50 (Hs-578T): 1.91 µM (inactive) | GI50 (IGROV-1): 0.123 µM (active) | GI50 (MDA-MB-435): 0.469 µM (active) | GI50 (Malme-3M): 0.0622 µM (active) | GI50 (NCI-H226): 0.124 µM (active) | GI50 (NCI-H23): 0.452 µM (active) | GI50 (NCI-H460): 0.452 µM (active) | GI50 (OVCAR-3): 0.826 µM (active) | GI50 (RPMI-8226): 0.402 µM (active) | GI50 (RXF 393): 1.36 µM (inactive) | GI50 (SF-539): 1.42 µM (inactive) | GI50 (SNB-75): 1.98 µM (inactive) | GI50 (TK-10): 2.52 µM (inactive) | GI50 (UACC-62): 0.303 µM (active) | GI50 (UO-31): 0.0316 µM (active)

CC1(C)CCC(C)(C)c2cc(NC(=O)c3ccc(C(=O)O)cc3)ccc21 [TAMIBAROTENE]
GI50 (A498): 23.7 µM (inactive) | GI50 (HCC 2998): 27.2 µM (inactive) | GI50 (HCT-116): 18.7 µM (inactive) | GI50 (HL-60): 44.5 µM (inactive) | GI50 (HOP-92): 24.7 µM (inactive) | GI50 (Hs-578T): 24.5 µM (inactive) | GI50 (IGROV-1): 34.8 µM (inactive) | GI50 (MDA-MB-435): 25.9 µM (inactive) | GI50 (Malme-3M): 17.9 µM (inactive) | GI50 (NCI-H226): 22.2 µM (inactive) | GI50 (NCI-H23): 23.2 µM (inactive) | GI50 (NCI-H460): 21.3 µM (inactive) | GI50 (OVCAR-3): 22.4 µM (inactive) | GI50 (RPMI-8226): 20.4 µM (inactive) | GI50 (RXF 393): 26.9 µM (inactive) | GI50 (SF-539): 17.7 µM (inactive) | GI50 (SNB-75): > 100 µM (inactive) | GI50 (TK-10): 25.1 µM (inactive) | GI50 (UACC-62): 16.5 µM (inactive) | GI50 (UO-31): 17.2 µM (inactive)
